Results reported in US20080131511A1, “Pharmaceutical Composition for Treatment of Tear and Salivary Fluid Drying” (Astellas Pharma, Inc., priority 2004, published 2008).
Where two headings read alike, the source gives them in different places.

How the values were obtained:
[1] = test system: healthy male adult volunteers; experiment: Phase I study, single oral administration: saliva secretion; format: in vivo, human; conditions: for Increase of saliva secretion (number of subjects with the symptom): healthy male adult volunteers, 6 subjects
Protocol: (§1) The compound A was orally administered once to healthy male adult volunteers, and saliva secretion action and pharmacokinetics were evaluated.
(§2) Drug administration to the volunteers was carried out by a blind method.
(§3) In order to observe the volunteers carefully, saliva quantity, sweating and pharmacokinetics (concentrations of unchanged compound A in plasma and urine) were periodically measured.

[2] = Phase I study, single oral administration: pharmacokinetics in plasma; format: in vivo, human; conditions: for Tmax / AUC / half-life / Cmax: male
Protocol: as §1, §2, §3

[3] = human plasma, single oral 10 mg
[4] = human plasma, single oral 20 mg
[5] = human plasma, single oral 40 mg
[6] = human plasma, single oral 60 mg

C=C1CC2(CCN(C)CC2)O[C@H]1C [compound A, (−)-(S)-2,8-dimethyl-3-methylene-1-oxa-8-azaspiro[4.5]decane]
Increase of saliva secretion (number of subjects with the symptom) ([1]; single oral 5 mg): 0
Increase of saliva secretion (number of subjects with the symptom) ([1]; single oral 10 mg): 2
Increase of saliva secretion (number of subjects with the symptom) ([1]; single oral 20 mg): 2
Increase of saliva secretion (number of subjects with the symptom) ([1]; single oral 60 mg): 5
minimum dose by which increase of the salivary fluid secretion was observed ([1]; phase I study, oral administration): 10 mg
AUC0→∞ ([2]; human plasma, single oral 5 mg): 117.6 ± 41.5 ng/h/mL
AUC0→∞ [2, 3]: 180.5 ± 77.6 ng/h/mL
AUC0→∞ [2, 4]: 410.1 ± 106.8 ng/h/mL
AUC0→∞ [2, 5]: 1,010.1 ± 323.2 ng/hr/ml
AUC0→∞ [2, 6]: 1,482.3 ± 371.1 ng/hr/ml
Tmax ([2]; plasma, oral, human test result which used general tablets containing the compound A): ~2 h
AUC ([2]; plasma, oral, human, 20 mg administration): 410 ng·h/mL
half-life ([2]; plasma, oral, human, 20 mg administration, read-out: T1/2 (converted)): 3.38 h
AUC ([2]; plasma, human, 40 mg oral administration): 1010 ng·h/mL
Cmax ([2]; plasma, human, oral 10 mg): 35.3 ± 10.5 ng/mL
Cmax ([2]; plasma, human, oral 40 mg): 151 ± 24.1 ng/mL
Cmax ([2]; human plasma, single oral 5 mg): 19.8 ± 5.2 ng/mL
Tmax ([2]; human plasma, single oral 5 mg): 1.5 ± 0.55 h
half-life ([2]; human plasma, single oral 5 mg, read-out: T½ (converted)): 3.89 ± 0.81 h
Tmax [2, 3]: 1.17 ± 0.41 h
half-life ([2]; human plasma, single oral 10 mg, read-out: T½ (converted)): 3.42 ± 0.67 h
Cmax [2, 4]: 68.1 ± 13 ng/mL
Tmax [2, 4]: 2 ± 0.63 h
half-life ([2]; human plasma, single oral 20 mg, read-out: T½ (converted)): 3.88 ± 0.67 h
Tmax [2, 5]: 1.67 ± 0.82 h
half-life ([2]; human plasma, single oral 40 mg, read-out: T½ (converted)): 3.78 ± 0.59 h
Cmax [2, 6]: 266 ± 25.2 ng/mL
Tmax [2, 6]: 1.6 ± 0.55 h
half-life ([2]; human plasma, single oral 60 mg, read-out: T½ (converted)): 3.2 ± 0.79 h
